The term inhibition denotes the relative decrease from the control value, in per cent. A word on the IC50: it is the concentration at which inhibition is half-maximal.

Assay type in all cases: cell-based
In test [1] the target is T1, Integrin alpha-4/beta-1 (Homo sapiens, UniProt P05556+P13612). The test can be described thus: Inhibition of recombinant human VCAM binding to VLA-4 of Ramos cells at 10 uM.
Test [2] has as its target T1, Integrin alpha-4/beta-1. Description: Antagonistic activity against VLA-4 (derived from ramos cells) binding to recombinant human VCAM.
Test [3] concerns the target T1, Integrin alpha-4/beta-1. Description: Inhibition of CS-1 peptide binding to VLA-4 expressed in Ramos cells.

Each structure is given as a SMILES string.

T1 sequence (P05556 whole entry): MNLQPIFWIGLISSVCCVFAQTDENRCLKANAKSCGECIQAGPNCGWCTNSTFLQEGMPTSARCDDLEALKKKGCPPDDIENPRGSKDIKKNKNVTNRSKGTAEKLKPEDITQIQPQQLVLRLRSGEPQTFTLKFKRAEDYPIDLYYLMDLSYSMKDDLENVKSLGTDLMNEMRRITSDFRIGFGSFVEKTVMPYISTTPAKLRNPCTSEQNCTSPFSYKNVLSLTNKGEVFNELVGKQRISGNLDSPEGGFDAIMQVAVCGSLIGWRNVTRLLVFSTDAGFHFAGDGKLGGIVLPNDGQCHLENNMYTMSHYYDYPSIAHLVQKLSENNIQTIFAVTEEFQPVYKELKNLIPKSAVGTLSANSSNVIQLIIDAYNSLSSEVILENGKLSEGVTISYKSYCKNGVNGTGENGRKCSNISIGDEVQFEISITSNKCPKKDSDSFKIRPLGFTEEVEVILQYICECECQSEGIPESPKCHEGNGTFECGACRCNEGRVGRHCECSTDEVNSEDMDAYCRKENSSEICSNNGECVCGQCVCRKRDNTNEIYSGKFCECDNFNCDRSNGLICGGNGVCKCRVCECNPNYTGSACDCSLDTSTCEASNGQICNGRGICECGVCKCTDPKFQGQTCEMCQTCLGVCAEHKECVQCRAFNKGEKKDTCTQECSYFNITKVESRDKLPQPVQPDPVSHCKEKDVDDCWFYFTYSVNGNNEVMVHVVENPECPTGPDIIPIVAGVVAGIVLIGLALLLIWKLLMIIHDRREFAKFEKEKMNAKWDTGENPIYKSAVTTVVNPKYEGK
T1 sequence (P13612 whole entry): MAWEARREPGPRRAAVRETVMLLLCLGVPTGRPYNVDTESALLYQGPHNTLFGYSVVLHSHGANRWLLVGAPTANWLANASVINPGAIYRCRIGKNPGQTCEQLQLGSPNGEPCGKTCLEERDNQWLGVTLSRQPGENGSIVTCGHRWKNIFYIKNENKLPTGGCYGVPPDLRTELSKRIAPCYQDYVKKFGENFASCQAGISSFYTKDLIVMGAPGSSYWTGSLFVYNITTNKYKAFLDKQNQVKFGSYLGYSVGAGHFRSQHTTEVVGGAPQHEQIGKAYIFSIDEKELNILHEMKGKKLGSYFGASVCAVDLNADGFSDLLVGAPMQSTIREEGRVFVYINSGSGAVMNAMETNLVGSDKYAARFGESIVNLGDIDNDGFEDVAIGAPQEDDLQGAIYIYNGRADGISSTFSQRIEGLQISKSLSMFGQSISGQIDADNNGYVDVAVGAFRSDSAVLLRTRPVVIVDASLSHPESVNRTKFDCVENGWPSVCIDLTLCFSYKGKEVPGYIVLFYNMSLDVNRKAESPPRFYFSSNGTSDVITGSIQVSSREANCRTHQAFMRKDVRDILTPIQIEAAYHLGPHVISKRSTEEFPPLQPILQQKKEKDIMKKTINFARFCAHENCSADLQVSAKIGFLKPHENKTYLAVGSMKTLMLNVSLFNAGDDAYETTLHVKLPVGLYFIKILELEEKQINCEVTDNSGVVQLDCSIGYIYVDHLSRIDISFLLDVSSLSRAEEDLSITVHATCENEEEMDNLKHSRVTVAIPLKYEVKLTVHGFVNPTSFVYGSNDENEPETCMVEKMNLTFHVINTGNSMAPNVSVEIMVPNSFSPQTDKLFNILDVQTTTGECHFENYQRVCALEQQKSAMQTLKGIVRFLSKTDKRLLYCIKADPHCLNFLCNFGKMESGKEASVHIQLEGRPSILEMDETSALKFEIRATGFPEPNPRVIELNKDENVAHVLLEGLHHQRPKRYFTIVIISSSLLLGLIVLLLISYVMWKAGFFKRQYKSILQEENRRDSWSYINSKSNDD

In the case of `CCCCCOc1ccc(C[C@H](NC(=O)C2CC(=O)N(C)C2c2cccnc2)C(=O)O)cc1` (stereo in doubt; 22) [listing 1 of 2 here], the inhibition in test [1] was found to be 90%.
As for `CC1(C(=O)N[C@@H](Cc2ccc(C#CCCCC(=O)O)cc2)C(=O)O)CC1(Cl)Cl` (stereo not given in full), the IC50 in test [2] was found to be 187 nM. Moreover, in test [1], the inhibition amounted to 80%.
With `CCCCCCc1ccc(C[C@H](NC(=O)Cc2cccc(NC(=N)N)c2)C(=O)O)cc1`, the IC50 in test [2] was found to be 7000 nM.
For the compound `CC(C)(C)OC(=O)N1CCC[C@H](CC(=O)N[C@@H](Cc2ccc(C#CCCCC(=O)O)cc2)C(=O)O)C1`, the IC50 in test [2] is 640 nM.
Take `CCCCCOc1ccc(C[C@H](NC(=O)C2CC(=O)N(C)C2c2cccnc2)C(=O)O)cc1` (stereo in doubt; 3) [listing 1 of 2 here]: the concentration for half-maximal inhibition (IC50) in test [2] worked out at 1700 nM.
As for `O=C(O)CCCC#Cc1ccc(C[C@H](NC(=O)[C@@H]2CCC(=O)N2Cc2ccccc2)C(=O)O)cc1`, the IC50 in test [2] turned out to be 20 nM.
With `CCCCCOc1ccc(C[C@H](NC(=O)C2(C)CC2(Cl)Cl)C(=O)O)cc1` (stereo not given in full), in test [2], the half-inhibitory concentration (IC50) is 210 nM.
Consider `CCCCCOc1ccc(C[C@H](NC(=O)C2CC(=O)N(C)C2c2cccnc2)C(=O)O)cc1` (stereo in doubt; 3) [listing 2 of 2 here], for which, in test [1], the inhibition is 81%.
For `CCCCCOc1ccc(C[C@H](NC(=O)[C@@H]2CCC(=O)N2Cc2ccccc2)C(=O)O)cc1`, the half-maximal inhibitory concentration (IC50) in test [2] stood at 46 nM. In addition, the inhibition in test [1] was 97%.
Turning to `CCCCCOc1ccc(C[C@H](NC(=O)c2c(C)cc(C)cc2C)C(=O)O)cc1`, the half-inhibitory concentration (IC50) in test [2] came out at 245 nM.
As to `COC(=O)CCCC#Cc1ccc(C[C@H](NC(=O)c2ccc(S(N)(=O)=O)cc2)C(=O)O)cc1`, the half-inhibitory concentration (IC50) in test [2] was determined as 317 nM. Further, in test [1], the inhibition stood at 94%.
As for `CCCCCOc1ccc(C[C@H](NC(=O)[C@@H]2CSCN2C(C)=O)C(=O)O)cc1`, the half-inhibitory concentration (IC50) in test [2] amounted to 112 nM; in test [3], 4200 nM.
For `CCCCCOc1ccc(C[C@H](NC(=O)C2CC(=O)N(C)C2c2cccnc2)C(=O)O)cc1` (stereo in doubt; 22) [listing 2 of 2 here], the IC50 in test [2] is 870 nM.
Regarding `CO/N=C(\C(=O)N[C@@H](Cc1ccc(C#CCCCC(=O)OC)cc1)C(=O)O)c1csc(N)n1`, the 50% inhibitory concentration (IC50) in test [2] was found to be 135 nM. The inhibition in test [1] turned out to be 99%.
In the case of `CCCCCOc1ccc(C[C@H](NC(=O)Cc2cccc(N)c2)C(=O)O)cc1`, the half-maximal inhibitory concentration (IC50) in test [2] came to 4500 nM.
Consider `CCCCCOc1ccc(C[C@H](NC(=O)/C(=N/OC)c2csc(N)n2)C(=O)O)cc1`, for which the IC50 in test [2] was 60 nM.
As to `CCCCCOc1ccc(C[C@H](NC(=O)c2c3ccccc3nc3ccccc23)C(=O)O)cc1`, the IC50 in test [2] is 590 nM. Moreover, the inhibition in test [1] was 92%.
For `CCCCCOc1ccc(C[C@H](NC(=O)c2cccnc2)C(=O)O)cc1`, the IC50 in test [2] worked out at 3800 nM. Moreover, in test [1], the inhibition was determined as 87%.

Values taken from ChEMBL document CHEMBL1133329, “N-acyl phenylalanine analogues as potent small molecule VLA-4 antagonists” (Bioorg Med Chem Lett, 2000).
